Assay results: patent US10870713B2, “Procatalyst and polymerization process using the same” (Dow Global Technologies LLC, priority 2015, dated 2020)

What was measured:
[1] = Solubility testing of procatalysts in aliphatic hydrocarbon solvents; format: physicochemical
Protocol: Hexanes (10 mL) was added to this material and the solution was allowed to settle overnight. 5.03 grams of the clear supernatant hexanes was removed from the vial, then the hexanes was removed from this clear solution to leave behind 205 mg of product.
Hexanes (10 mL) was added to this material and the solution was allowed to settle overnight. 5.1 grams of the clear supernatant hexanes was removed from the vial, then the hexanes was removed from this clear solution to leave behind 140 mg of product.
About 950 mg of pre-catalyst used. Added ISOPAR-E (40 mL). Swirled solution then allowed insoluble material to settle to the bottom of the jar overnight. Removed 5.06 grams of ISOPAR-E solution into a vial. Solvent was removed and 120 mg of pre-catalyst was obtained.
To 72.3 mg of the solid in a vial was added 0.9 mL of ISOPAR E. The solution was stirred for about 1 h. The mixture was filtered and the solution was weighted (0.2934 g).
A 20-mL vial was charged with 82.0 mg of the Hf-complex and 0.8 mL of ISOPAR E. The mixture was stirred for 2 h and it was filtered via syringe filter. The colorless solution was weight and then concentrated under vacuum for 3 h. The white solid was weight to obtained 0.0217 g for a 6.2 w/w % solubility.
To the solid was added 0.2198 g of ISOPAR E and stirred for 1 hour. The solid completely dissolved to indicate a 9.5 wt % solubility in ISOPAR E.
To the Hf-complex was added 4 mL of hexane, and the solution was stirred for 4 hours. The solution was filtered via syringe to provide a weight of 2.0638 g. This solution was concentrated under vacuum to afford 0.3228 g of the solid 17 indicative of a 15.6 wt % solubility in hexanes. […]
Solubility was determined by either first forming a saturated solution of the procatalyst in one or more of the solvents as shown in Table 1. […] A portion of the clear supernatant is removed, and the mass is recorded. […] The mass of the resulting procatalyst that was in solution is recorded, allowing for calculation of a w/w % solubility in the indicated solvent. […]

[2] = Batch polymerization of ethylene and 1-octene in a Parr reactor (catalyst efficiency); settings: reactor 147° C.; ISOPAR-E 1320 g; 1-octene 250 g; ethylene 410 psi; 10 min; procatalyst:activator 1:1.2; procatalyst:MMAO 1:50
Text: The procatalysts shown above were used to polymerize ethylene and 1-octene in a Parr batch polymerization reactor. All feeds were passed through columns of alumina and Q-5 catalyst (available from Engelhard Chemicals Inc.) prior to introduction into the polymerization reactor. Procatalyst and activator solutions were handled in a glove box under nitrogen atmosphere prior to addition to the polymerization reactor.
Table 2 illustrates the batch polymerizations results for each of C1 and 11-12 under the following conditions: reactor temperature: 147° C.; ISOPAR-E: 1320 g; 1-octene: 250 g; ethylene pressure: 410 psi; Run time: 10 min; procatalyst to activator ratio is 1:1.2; activator=[HNMe(C18H37)2][B(C6F5)4]; procatalyst to MMAO ratio is 1:50; […]
The catalyst efficiency is calculated by dividing the number of grams of the polyolefin copolymer prepared by the total number of grams of metal M of ingredient (a) employed (i.e., metal M of the at least one metal-ligand complex of formula (I)) (i.e., catalyst efficiency=g polyolefin copolymer prepared/g metal M of metal-ligand complex(es) of formula (I) employed).

Cc1cc2c(c(-n3c4ccccc4c4ccccc43)c1)[O][Hf-2]13([CH3])([CH3])[O]c4c(cc(C)cc4-n4c5ccccc5c5ccccc54)-c4ccccc4[O+]1C[C@@H]1CCCCC1C[O+]3c1ccccc1-2 (stereo partly shown) [Procatalyst C1]
wt/wt % Solubility, ISOPAR-E ([1]; solvent ISOPAR-E): 1.2 wt/wt %
wt/wt % Solubility, Hexanes ([1]; solvent hexanes): 0.5 wt/wt %
wt/wt % Solubility, Methylcyclohexane ([1]; solvent methylcyclohexane): 1.7 wt/wt %
Efficiency [2]: 826,377 g polyolefin copolymer prepared/g metal M
